Reference: publication PMC11931052, “Efficacy of dispirotripiperazine PDSTP in a golden Syrian hamster model of SARS-CoV-2 infection” (Frontiers in Microbiology, 2025)
Entries after “also recorded” stand apart in the source; their conditions may differ.

What was measured:
HCoV-229E = test: Plaque reduction assay, HCoV-229E in Vero E6 cells; assay type: cell-based
Procedure: Vero E6 cells were incubated in the presence of PDSTP and reference compounds (100.0, 20.0, 4.0, and 0.8 μM concentrations) for 1 h at 37°C in a 5% CO2 and then infected for 1 h with 250 μL of the corresponding virus (SARS-CoV-2 PV10734 or HCoV-229E) dilutions to obtain 50–100 PFU/well. The plates were then incubated for 1 h at 37°C in a 5% CO2 atmosphere. Following the removal of the unabsorbed virus, 400 μL of the medium (D-MEM with L-glutamine, 4,500 mg/L D-glucose, and 1% inactivated FBS) containing 0.75% methyl-cellulose (M0512, viscosity 4,000 cP, Sigma-Aldrich, United States) and the serial dilutions of the compounds were added and incubated for 4 (SARS-CoV-2) or 2 (HCoV-229E) days at 37°C in a 5% CO2 atmosphere. Subsequently, the cells were fixed and stained with a 0.2% crystal violet solution (V5265, Sigma-Aldrich, United States) and then the number of plaques was calculated. The degree of cell growth/viability and viral multiplication at each drug concentration tested was expressed as a percentage of the untreated control. Concentrations resulting in 50% inhibition (CC50 or EC50) were determined using linear regression analysis.

[1] = system: SARS-CoV-2 clinical isolate 35245; test: Microtetrazolium (MTT) test, SARS-CoV-2 35245; assay type: cell-based; conditions: Severe acute respiratory syndrome coronavirus 2, read-out: Antiviral activity IC50 against coronaviruses, SARS-CoV-2 clinical isolate 35245, MTT
Procedure: The compound’s activity against OC43 and SARS-CoV-235245 was based on the inhibition of virus-induced cytopathogenicity in acutely infected Vero-76 cells (MOI 0.01). Briefly, Vero-76 cells were seeded in 96-well plates at a density of 3 × 10^4 cells/well and incubated in a growth medium in a 5% CO2 at 37°C overnight. Cell monolayers were then infected with 50 μL of the appropriate viral dilution in maintenance medium [D-MEM and MEM-Earl (Gibco, Thermo Fisher Scientific, MA United States) with L-glutamine (Gibco), 1 mM sodium pyruvate (Gibco), and 0.025 g/L kanamycin (Gibco), supplemented with 0.5% inactivated FBS (Harlan Sera-Lab, Loughborough, United Kingdom), respectively] to give an MOI of 0.01, without or with serial dilutions of test samples. After 6 (HCoV-OC43) and 4/5 (SARS-CoV-2) days of incubation at 37°C, the extent of cell viability was quantified using a tetrazolium-based colorimetric method, in which the reduction of 3-(4,5-dimethylthiazol-2-yl)-2,5-diphenyl-tetrazolium bromide (MTT) by mitochondrial dehydrogenases to a soluble colored formazan was measured using a spectrophotometer (Infinity 200, Tecan Austria GmbH, Austria) at 570 nm, as previously reported ([Sanna et al., 2020]).

[2] = Cytotoxicity (MTT test) in Vero-76 cells; assay type: cell-based, African Green Monkey (Cercopithecus aethiops); conditions: African green monkey
Procedure: The microtetrazolium test (MTT test) was used to study the cytotoxicity of the compounds. Vero cells were seeded in 96-well plates at an initial density of 3×10^5 cells/mL, in Gibco Dulbecco’s Modified Eagle Medium supplemented with L-glutamine and 25 mg/L kanamycin, and 10 % fetal bovine serum (FBS) (DMEM, Thermo Fisher Scientific, Waltham, MA USA). Cell cultures were then incubated at 37 °C in a 5 % CO2 atmosphere, in the absence or presence of serial dilutions of test compounds. The test medium used for the cytotoxic assay as well as for the antiviral assay contained 1 % of the appropriate serum. Cell viability was determined after 72 h at 37 °C by the MTT method as previously reported. The cell viability was expressed as a percentage of the control. The 50% cytotoxic concentration (CC50) of each compound was defined as the concentration of the compound that reduced the absorbance (OD570) of the treated cells to 50% when compared with that of untreated cells. CC50 mean values were calculated from at least three independent experiments.

SARS-COV-2 PV10734 = test: Virucidal activity assay; conditions: 20 µM; 4°C and 37°C for 2 hours
Procedure: PDSTP (20 µM) was incubated with 3×10^5 PFU/mL of SARS-COV-2 PV10734 at either 4 and 37 °C for 2 hours. The mixture of the viral sample without a test compound was used as an untreated control. At the end of the incubation period, samples were serially diluted in media and titers were determined on Vero-76 cells at high dilutions, at which the compound was not active. Virus titers were determined by plaque assay in Vero-76 cells.

[3] = Acute toxicity, intraperitoneal administration, mice; conditions: both sexes, mouse, in vivo, ip, Mice (M/F)
[4] = Acute toxicity, topical application, rats; assay type: in vivo; conditions: for LD50: acute toxicity, topical application
[5] = Acute toxicity, intragastric administration, mice; assay type: in vivo; conditions: maximum dose 1000 mg/kg
[6] = Acute toxicity, intragastric administration, rats; assay type: in vivo; conditions: maximum dose 5000 mg/kg
[7] = Chronic toxicity, intranasal administration, rabbits; assay type: in vivo; conditions: repeated administration for 14 days, 10-200 mg/kg
[8] = system: Salmonella typhimurium strains TA 97, TA 98 and TA 100; test: Ames test (Salmonella/microsome test); conditions: 0.1 to 1000 µg/ cup; MA+ and MA-
Procedure: PDSTP doses tested: 0.1 to 1000 µg/ cup.
Test subjects: Salmonella typhimurium strains TA 97, TA 98 and TA 100.
Metabolic activation: MA+ and MA-.

mouse bone marrow cells = test: Chromosomal aberrations in mouse bone marrow cells; assay type: in vivo, F1 hybrids of SWAxC57BL/6 mice; conditions: 400 mg/kg and 1000 mg/kg topically
Procedure: PDSTP doses tested: 400 mg/kg and 1000 mg/kg
Test subjects: F1 hybrids of SWAxC57BL/6 mice.
Method of administration: topically

[9] = Allergenicity study, guinea pigs; assay type: in vivo; conditions: intradermal sensitizing dose 40 µg into the ear; epicutaneous and conjunctival testing
[10] = Immunotoxicity study, long-term topical application; assay type: in vivo
From the text: Conclusion: PDSTP compound has no effect on humoral immunity and functional activity of macrophages when applied topically for 30 days in doses up to 100 TD.

[11] = Reproductive toxicity: generative function of sexually mature animals; assay type: in vivo, white laboratory rats; conditions: 10% solution topically on 5% of body surface area for 25 days
From the text: PDSTP doses tested: 10% solution
Test subjects: white laboratory rats of both sexes
The drug was applied topically on 5% of body surface area (3x5 cm area) for 25 days.

In the case of Cc1nc(N2CC[N+]3(CC2)CC[N+]2(CCNCC2)CC3)c([N+](=O)[O-])c(N2CC[N+]3(CC2)CC[N+]2(CCNCC2)CC3)n1.Cl.Cl.O.O.O.O.O.O.O.O.O.[Cl-].[Cl-].[Cl-].[Cl-] [PDSTP, 3,3′-(2-methyl-5-nitropyrimidine-4,6-diyl)bis-3,12-diaza-6,9-diazonia-dispiro[5.2.5.2]hexadecane tetrachloride dihydrochloride nonahydrate], the “Antiviral activity against alphacoronavirus HCoV-229E” value (HCoV-229E) is reported as “no in vitro activity; also recorded: No antiviral activity was detected”, the IC50 (HCoV-229E; Human coronavirus 229E, Vero C1008, Vero E6, mean ± SD, read-out: Antiviral activity IC50 against coronaviruses, HCoV-229E, PR) is reported as over 100 µM and the IC50 [1] is reported as 14.5 ± 3.3 µM. For the same compound, the CC50 at 72 h [2] was over 100 µM, the “Virucidal activity (direct impact on viral infectivity)” value (SARS-COV-2 PV10734) was “no direct impact; also recorded: lacks virucidal activity” and the LD50 [3] was 192 mg/kg. For the same compound, the LD50 [4] was “greater than 31.25 mg/cm^2”, the “Toxicity and local irritant effects on skin” value ([4]; maximum regulated amount applied to the skin) was “No manifestations of toxicity and local irritant effects were observed” and the LD50 ([4]; rat, in vivo, topical or ocular, 2500 mg/kg, read-out: LD50) was over 2500 mg/kg. For the same compound, the Clinical signs [5] was “piloerection and diarrhea, deterioration of hair coat, decreased motor activity, and decreased body weight”, the Mortality [5] was “The death of animals was not recorded” and the Clinical signs [6] was “piloerection and diarrhea, deterioration of hair coat, decreased motor activity, and decreased body weight”. The Mortality [6] was “The death of animals was not recorded”, the “Toxic effect on organs and systems” value [7] was “toxic effect on organs and systems was not revealed” and the “Mutagenic activity (Ames test)” value [8] was “no mutagenic activity”. The “Induction of chromosomal aberrations” value (mouse bone marrow cells) was “did not reveal the ability to induce chromosomal aberrations”, the Sensitizing properties [9] was “no sensitizing properties” and the “Effect on cellular immunity” value ([10]; long-term topical applications, immunosuppression only at maximum dose of 100 TD, reversible 14 days after withdrawal) was “tends to suppress cellular immunity”. The “Effect on humoral immunity and functional activity of macrophages” value ([10]; topically for 30 days in doses up to 100 TD) was “no effect” and the “Effect on generative function of sexually mature animals” value [11] was “no pathological effect”.
